According to ChEMBL document CHEMBL1132291, “Synthesis and serotonergic activity of substituted 2, N-benzylcarboxamido-5-(2-ethyl-1-dioxoimidazolidinyl)-N, N-dimethyltryptamine derivatives: novel antagonists for the vascular 5-HT(1B)-like receptor” (J Med Chem, 1999):

Assays:
[1] = system: 5-hydroxytryptamine receptor 2A (Oryctolagus cuniculus); assay: Binding affinity for 5-hydroxytryptamine 2A receptor of rabbit aorta ring preparations
[2] = system: 5-hydroxytryptamine receptor 1B (Oryctolagus cuniculus); assay: Binding affinity against vascular 5-hydroxytryptamine 1B receptor, measured using ring preparations of rabbit saphenous vein (RbSV)
[3] = system: Adrenergic receptor alpha-1 (Oryctolagus cuniculus); assay: Alpha-1 adrenergic receptor affinity using ring preparations of rabbit thoracic aorta (RbTA).
[4] = target: T1, 5-hydroxytryptamine receptor 1A (Rattus norvegicus, UniProt P19327); assay: Binding affinity against 5-hydroxytryptamine 1A receptor in rat cortex homogenates.; assay type: tissue-based
T1 sequence (P19327 whole entry): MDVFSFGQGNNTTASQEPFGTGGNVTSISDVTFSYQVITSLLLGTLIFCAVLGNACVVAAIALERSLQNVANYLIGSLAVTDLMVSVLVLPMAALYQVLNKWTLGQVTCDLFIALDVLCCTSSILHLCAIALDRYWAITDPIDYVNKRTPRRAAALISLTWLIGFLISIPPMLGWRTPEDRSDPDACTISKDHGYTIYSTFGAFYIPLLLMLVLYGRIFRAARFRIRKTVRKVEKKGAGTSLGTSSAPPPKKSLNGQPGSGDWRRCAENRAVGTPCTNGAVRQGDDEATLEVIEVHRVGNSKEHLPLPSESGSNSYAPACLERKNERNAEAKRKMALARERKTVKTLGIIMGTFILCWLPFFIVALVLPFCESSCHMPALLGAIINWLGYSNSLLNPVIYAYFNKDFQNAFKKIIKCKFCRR

[5] = target: T2, 5-hydroxytryptamine receptor 2C (Rattus norvegicus, UniProt P08909); assay: Binding affinity against 5-hydroxytryptamine 2C receptor in rat cortex homogenates.; assay type: tissue-based
T2 sequence (P08909 whole entry): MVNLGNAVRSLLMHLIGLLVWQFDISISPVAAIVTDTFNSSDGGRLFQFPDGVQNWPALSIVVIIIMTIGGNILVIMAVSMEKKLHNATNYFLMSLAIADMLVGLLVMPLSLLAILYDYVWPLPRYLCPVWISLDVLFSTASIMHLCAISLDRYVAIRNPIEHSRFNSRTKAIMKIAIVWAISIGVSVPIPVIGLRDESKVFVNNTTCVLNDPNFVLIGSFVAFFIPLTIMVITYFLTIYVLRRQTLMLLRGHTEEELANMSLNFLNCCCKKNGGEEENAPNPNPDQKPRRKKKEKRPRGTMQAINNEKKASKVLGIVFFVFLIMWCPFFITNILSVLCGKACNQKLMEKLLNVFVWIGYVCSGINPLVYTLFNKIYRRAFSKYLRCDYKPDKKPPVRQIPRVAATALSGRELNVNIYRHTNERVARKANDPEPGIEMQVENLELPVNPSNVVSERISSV

[6] = system: 5-hydroxytryptamine receptor 1B (Oryctolagus cuniculus); assay: The vascular 5-hydroxytryptamine 1B receptor affinity was assessed using ring preparations of rabbit saphenous vein (RbSV).
[7] = system: 5-hydroxytryptamine receptor 1B (Oryctolagus cuniculus); assay: The vascular 5-hydroxytryptamine 1B receptor affinity was assessed using ring preparations of rabbit saphenous vein(RbSV).

| SMILES | pKB [2] | pKB [3] | also measured |
| --- | --- | --- | --- |
| CN(C)CCc1c(C(=O)N(C)C)[nH]c2ccc(CCN3C(=O)CNC3=O)cc12 | < 5 |  | pKB [1]: < 5 |
| COc1cccc(CNC(=O)c2[nH]c3ccc(CCN4C(=O)NC(C)(C)C4=O)cc3c2CCN(C)C)c1 | 6.47 | 5.17 |  |
| CN(C)CCc1c(C(=O)NCc2ccccc2N)[nH]c2ccc(CCN3C(=O)CNC3=O)cc12 | 6.67 | 5.73 |  |
| CN(C)CCc1c(C(=O)NCc2ccccc2)[nH]c2ccc(CCN3C(=O)NC(C)(c4ccccc4)C3=O)cc12 (stereo unspecified) | 7.15 | 5.27 |  |
| CN(C)CCc1c(C(=O)N(C)Cc2ccccc2)[nH]c2ccc(CCN3C(=O)NC(C)(C)C3=O)cc12 | 5.8 | 5.8 | pKB [1]: 6.03 |
| CN(C)CCc1c(C(=O)NN)[nH]c2ccc(CCN3C(=O)NC(C)(C)C3=O)cc12 | 5.48 | < 4.5 |  |
| CCOC(=O)c1[nH]c2ccc(CCN3C(=O)CNC3=O)cc2c1CCN(C)C | 7.42 | 5.43 | pKB [1]: < 5 |
| CN(C)CCc1c(C(=O)NCc2cccc(N)c2)[nH]c2ccc(CCN3C(=O)NC(C)(C)C3=O)cc12 | 6.52 | 4.58 |  |
| CN(C)CCc1c(C(=O)NCc2ccccc2)[nH]c2ccc(CCN3C(=O)C4CCCN4C3=O)cc12 (stereo unspecified) | 6.66 | 5.31 |  |
| CN(C)CCc1c(C(=O)NCc2ccc(S(C)(=O)=O)cc2)[nH]c2ccc(CCN3C(=O)NC(C)(C)C3=O)cc12 | 5.91 | 4.52 |  |
| CN(C)CCc1c(C(=O)Nc2ccccc2)[nH]c2ccc(CCN3C(=O)NC(C)(C)C3=O)cc12 | 5.21 | 4.86 |  |
| CN(C)CCc1c(C(=O)NCc2ccccc2N)[nH]c2ccc(CCN3C(=O)NC(C)(C)C3=O)cc12 | 6.72 | 4.79 |  |
| CN(C)CCc1c(C(=O)NCc2ccc(N)cc2)[nH]c2ccc(CCN3C(=O)NC(C)(C)C3=O)cc12 | 6.19 | 4.52 |  |
| CN(C)CCc1c(C(=O)NCCc2ccccc2)[nH]c2ccc(CCN3C(=O)NC(C)(C)C3=O)cc12 | 5.57 |  | pKB [1]: 5.35 |
| CN(C)CCc1c(C(=O)NCc2ccccc2)[nH]c2ccc(CCN3C(=O)NC4(CCCC4)C3=O)cc12 | 7.2 | 5.48 |  |
| CN(C)CCc1c(C(=O)NCc2ccccc2)[nH]c2ccc(CCN3C(=O)NC(C)(C)C3=O)cc12 | 7.09 | 5.2 | Ki [4]: 14.8 µM; Ki [5]: 2.19 µM; pKB [1]: 5.6 |
| CN(C)CCc1c(C(=O)NCc2ccc(Cl)c(Cl)c2)[nH]c2ccc(CCN3C(=O)NC(C)(C)C3=O)cc12 | 6.5 | 5 |  |
| CCCCNC(=O)c1[nH]c2ccc(CCN3C(=O)CNC3=O)cc2c1CCN(C)C | 5.94 |  | pKB [1]: 5.2 |
| CN(C)CCc1c(C(=O)NCc2cccc(NS(C)(=O)=O)c2)[nH]c2ccc(CCN3C(=O)NC(C)(C)C3=O)cc12 | 5.67 | 4.51 |  |
| CNC(=O)c1[nH]c2ccc(CCN3C(=O)CNC3=O)cc2c1CCN(C)C | 5.94 |  | pKB [1]: < 5 |
| CN(C)CCc1c(C(=O)NCc2cccc(Cl)c2)[nH]c2ccc(CCN3C(=O)NC(C)(C)C3=O)cc12 | 6.45 |  |  |
| CON(C)C(=O)c1[nH]c2ccc(CCN3C(=O)CNC3=O)cc2c1CCN(C)C | 5.76 |  | pKB [1]: 5.3 |
| CN(C)CCc1c(C(=O)NCc2ccc(Cl)cc2)[nH]c2ccc(CCN3C(=O)CNC3=O)cc12 | 7.74 | 6.47 | pKB [1]: 6.31 |
| CN(C)CCc1c(C(=O)NCc2ccccc2)[nH]c2ccc(CCN3C(=O)NC(c4ccccc4)(c4ccccc4)C3=O)cc12 | 6.44 | 5 |  |

| SMILES | pKB [2] | pKB [3] | also measured |
| --- | --- | --- | --- |
| CN(C)CCc1c(C(=O)NCC(N)=O)[nH]c2ccc(CCN3C(=O)NC(C)(C)C3=O)cc12 | < 5 |  |  |
| CN(C)CCc1c(C(=O)NCc2ccccc2Cl)[nH]c2ccc(CCN3C(=O)NC(C)(C)C3=O)cc12 | 5.81 | 5.35 |  |
| CN(C)CCc1c(C(=O)NCc2cccc3ccccc23)[nH]c2ccc(CCN3C(=O)NC(C)(C)C3=O)cc12 | 5.5 |  |  |
| CN(C)CCc1c(C(=O)NCc2ccc(-c3ccccc3)cc2)[nH]c2ccc(CCN3C(=O)NC(C)(C)C3=O)cc12 | 5.77 | 5 |  |
| CCCCNC(=O)c1[nH]c2ccc(CCN3C(=O)NC(C)(C)C3=O)cc2c1CCN(C)C | 5.47 |  | pKB [1]: < 5 |
| CN(C)CCc1c(C(=O)NCc2ccccc2N)[nH]c2ccc(CCN3C(=O)NC(c4ccccc4)(c4ccccc4)C3=O)cc12 | 6.31 | 5.43 |  |
| CN(C)CCc1c(C(=O)NCc2ccccc2N)[nH]c2ccc(CCN3C(=O)N(C)C(C)(c4ccccc4)C3=O)cc12 (stereo unspecified) | 6.64 | 4.78 |  |
| CN(C)CCc1c(C(=O)NCc2ccccc2)[nH]c2ccc(CCN3C(=O)CNC3=O)cc12 | 7.36 | 5.77 | Ki [4]: 67.6 µM; Ki [5]: 1.91 µM; pKB [1]: 6.09 |
| CN(C)CCc1c(C(=O)NCc2ccccc2)[nH]c2ccc(CCN3C(=O)N(C)C(C)(c4ccccc4)C3=O)cc12 (stereo unspecified) | 7.19 | 5.5 |  |
| CC(=O)Nc1cccc(CNC(=O)c2[nH]c3ccc(CCN4C(=O)NC(C)(C)C4=O)cc3c2CCN(C)C)c1 | 5.68 | 4.5 |  |
| CC(=O)Nc1ccccc1CNC(=O)c1[nH]c2ccc(CCN3C(=O)NC(C)(C)C3=O)cc2c1CCN(C)C |  | < 5 | pKB [6]: 6.04 |
| COc1ccc(CNC(=O)c2[nH]c3ccc(CCN4C(=O)NC(C)(C)C4=O)cc3c2CCN(C)C)cc1 |  | 4.73 | pKB [7]: 6.54 |
| Cc1ccc(CNC(=O)c2[nH]c3ccc(CCN4C(=O)NC(C)(C)C4=O)cc3c2CCN(C)C)cc1 | 7 | 6 |  |
| CN(C)CCc1c(C(=O)NCc2ccccc2N)[nH]c2ccc(CCN3C(=O)NC(C)(c4ccccc4)C3=O)cc12 (stereo unspecified) | 6.65 | 5.21 |  |
| CN(C)CCc1c(C(=O)NCc2ccc(C(F)(F)F)cc2)[nH]c2ccc(CCN3C(=O)NC(C)(C)C3=O)cc12 | 6.2 | < 5 |  |
| CN(C)CCc1c(C(=O)NCc2ccc(NS(C)(=O)=O)cc2)[nH]c2ccc(CCN3C(=O)NC(C)(C)C3=O)cc12 | 5.65 | < 4.5 |  |
| CN(C)CCc1c(C(N)=O)[nH]c2ccc(CCN3C(=O)CNC3=O)cc12 | < 5 |  | pKB [1]: < 5 |
| C#CCNC(=O)c1[nH]c2ccc(CCN3C(=O)NC(C)(C)C3=O)cc2c1CCN(C)C | 5.44 | 4.62 |  |
| CN(C)CCc1c(C(=O)NCc2ccc(F)cc2)[nH]c2ccc(CCN3C(=O)NC(C)(C)C3=O)cc12 | 7.3 | 5.46 |  |
| CN(C)CCc1c(C(=O)NCc2ccc(Cl)cc2)[nH]c2ccc(CCN3C(=O)NC(C)(C)C3=O)cc12 | 7.59 | 5.86 |  |
| CONC(=O)c1[nH]c2ccc(CCN3C(=O)NC(C)(C)C3=O)cc2c1CCN(C)C | 5.4 | < 4.5 |  |
| CN(C)CCc1c(C(=O)NCc2ccccc2O)[nH]c2ccc(CCN3C(=O)NC(C)(C)C3=O)cc12 | 6.61 | 5 |  |
| CC(NC(=O)c1[nH]c2ccc(CCN3C(=O)NC(C)(C)C3=O)cc2c1CCN(C)C)c1ccccc1 (stereo unspecified) | 5.5 | 4.65 | pKB [1]: 5.59 |
